Experimental findings from patent publication US5714363A, “Deacetoxycephalosporin C hydroxylase” (priority 1992, dated 1998) are described below.

Structures can show the parent of a compound that is named as a salt. Where two headings read alike, the source gives them in different places.

Data set [1] has as its target T1, DAOC hydroxylase (Streptomyces clavuligerus, UniProt P42220).
T1 sequence (P42220 1-318): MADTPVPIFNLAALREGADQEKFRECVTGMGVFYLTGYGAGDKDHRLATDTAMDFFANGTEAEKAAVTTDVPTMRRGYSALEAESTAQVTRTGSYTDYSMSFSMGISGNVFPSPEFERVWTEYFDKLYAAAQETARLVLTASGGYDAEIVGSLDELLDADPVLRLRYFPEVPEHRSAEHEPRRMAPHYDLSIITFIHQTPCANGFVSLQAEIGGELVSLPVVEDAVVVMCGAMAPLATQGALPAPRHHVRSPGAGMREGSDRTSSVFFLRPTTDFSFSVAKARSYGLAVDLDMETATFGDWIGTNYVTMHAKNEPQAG
The data set can be described thus: DAOC hydroxylase activity assay (DAC formation from DAOC, HPLC at 260 nm). In kind it is biochemical. Details: The highly purified native enzyme (92% purity) has a molecular weight of 35,000 dalton; endogenous in cells; host or cells: Streptomyces clavuligerus cells (native producer; NRRL 18491 is named as preferred strain), enzyme purified from cell-free extract. The conditions noted are these: for stimulation of catalytic activity: with Fe2+, α-ketoglutarate and O2; for replacement of ferrous ion for enzymatic activity: ion in place of Fe2+; for drop of maximum catalytic activity when not present: external ferrous ion, DTT and ascorbate both absent; for Relative Activity (%): no additive = 100; for reduction in enzyme activity: substitution of MOPS buffer at optimal pH. The method, then: (§1) The activity of the DAOC hydroxylase is determined throughout the process by the following assay method. The hydroxylase activity was determined by monitoring DAC formation from DAOC at 260 nm with HPLC as described by Dotzlaf, J. E., and Yeh, W.-K. (1987) J. Bacteriol., 169, 1611-1618. […] The enzymatic reaction is initiated by adding the DAOC and the reaction is conducted for 20 minutes at 29° C. DAC formation is linear with reaction time for up to 40 minutes. One unit of enzyme activity is defined as the amount of hydroxylase required to cause formation of one μmol of DAC per minute from DAOC under the above-described assay conditions.
The specific activity of the hydroxylase is defined as units per milligram of protein.

The target in data set [2] is T1, DAOC hydroxylase. In words: Substrate specificity of purified DAOC hydroxylase. It counts as biochemical. Details: The highly purified native enzyme (92% purity) has a molecular weight of 35,000 dalton; endogenous in cells; host or cells: Streptomyces clavuligerus cells (native producer; NRRL 18491 is named as preferred strain), enzyme purified from cell-free extract. The conditions noted are these: for Sp. Activity (mU/mg) / Relative Activity (%): compound as substrate; for Relative Activity (%): relative to DAOC = 100; for Vmax (Percent Catalytic Activities, relative Vmax): relative to DAOC to DAC = 100, substrate of the reaction; for effectiveness as substrate: conditions for optimal catalysis. The protocol: Several compounds were evaluated as substrates for the purified enzyme to determine its substrate specificity. The compounds evaluated and the results are shown below in TABLE 4. The results were obtained by EPLC analysis.
as §1

Data set [3] has as its target T1, DAOC hydroxylase. The data set can be described thus: Stoichiometry of DAOC to DAC conversion. In kind it is biochemical. Details: The highly purified native enzyme (92% purity) has a molecular weight of 35,000 dalton; endogenous in cells; host or cells: Streptomyces clavuligerus cells (native producer; NRRL 18491 is named as preferred strain), enzyme purified from cell-free extract. The method, then:
The stoichiometry of the hydroxylase conversion of DAOC to DAC was determined. The molar ratio for DAC-formation/DAOC-disappearance during a 3 h reaction remained in the range of 0.91-1.00 as shown by the plot in FIG. 2. The conversion of DAOC to DAC was only partially complete (58%) under the reaction conditions.

The procedure of data set [4]: The DAOC hydroxylase is recognized as unstable and, accordingly, was difficult to isolate and obtain in a high state of purity from cell-free extracts.
The process of this invention comprises the use of a hydroxylase stabilizing buffer which is used both in the preparation of crude cell-free extracts of the enzyme and during the isolation and purification thereof. The stabilizing buffer, referred to herein as buffer A, comprises 15 mM MOPS buffer, pH 7.3, containing 1 mM uric acid, 1 mM mannitol and 0.1M KCl.

Data set [5] deals with T1, DAOC hydroxylase. In words: Kinetic parameters of DAOC hydroxylase (Lineweaver-Burk). The protocol: The activity of the DAOC hydroxylase is determined throughout the process by the following assay method. The hydroxylase activity was determined by monitoring DAC formation from DAOC at 260 nm with HPLC as described by Dotzlaf, J. E., and Yeh, W.-K. (1987) J. Bacteriol., 169, 1611-1618. […] The enzymatic reaction is initiated by adding the DAOC and the reaction is conducted for 20 minutes at 29° C. […] One unit of enzyme activity is defined as the amount of hydroxylase required to cause formation of one μmol of DAC per minute from DAOC under the above-described assay conditions.

For `N[C@@H](CCC(=O)N[C@@H](CS)C(=O)NCC(=O)O)C(=O)O` [Reduced glutathione], at DAOC hydroxylase [1], the “stimulation of catalytic activity” value is given as “as effective”.

For `CC1=C(C(=O)O)N2C(=O)[C@@H](NC(=O)CCC[C@@H](N)C(=O)O)[C@H]2SC1` [DAOC, deacetoxycephalosporin C], on DAOC hydroxylase [2], the “Sp. Activity (mU/mg)” value worked out at 159.2 mU/mg; the “Relative Activity (%)” value was found to be 100%; the “Vmax (Percent Catalytic Activities, relative Vmax)” value is reported as 100%. In addition, the “conversion of DAOC to DAC” value on DAOC hydroxylase [3] (3 h reaction) is 58%. Also, the “molar ratio DAC-formation/DAOC-disappearance” value on DAOC hydroxylase [3] (during a 3 h reaction) is 0.91-1.00.

In the case of `CC1=C(C(=O)O)N2C(=O)[C@@H](NC(=O)CCC[C@H](N)C(=O)O)[C@H]2SC1` [Iso-DAOC, 7β-(Lα-aminoadipamido)-3-methyl-3-cephem-4-carboxylic acid], at DAOC hydroxylase [2], the “Sp. Activity (mU/mg)” value turned out to be 1.3 mU/mg, the “Relative Activity (%)” value came to 0.8% and the effectiveness as substrate entry was “did not serve as effective substrates”.

Take `[Co+2]` [Co^2+]: the “replacement of ferrous ion for enzymatic activity” value (“replacement of ferrous ion” for short) on DAOC hydroxylase [1] was “not replaceable”.

On to `CCO` [ethyl alcohol], for which the “effect on the stability of the hydroxylase” value in data set [4] is “no effect”.

Turning to `[Zn+2]` [Zn^2+], the “replacement of ferrous ion” value at DAOC hydroxylase [1] was “not replaceable”.

Regarding `O[C@H](CS)[C@H](O)CS` (racemic) [DTT, dithiothreitol], at DAOC hydroxylase [1], the “drop of maximum catalytic activity when not present” value is given as approximately 80% and the “stimulation of catalytic activity” value is “stimulated”.

On to `[K+]` [potassium], for which, on DAOC hydroxylase [1], the “replacement of ferrous ion” value is listed as “not replaceable”.

Turning to `[Ca+2]` [Ca^2+], the “replacement of ferrous ion” value at DAOC hydroxylase [1] is recorded as “not replaceable”.

With `O=C1O[C@H]([C@@H](O)CO)C(O)=C1O` [ascorbate], the “drop of maximum catalytic activity when not present” value at DAOC hydroxylase [1] is approximately 80%.

For the molecule `c1cnc2c(c1)ccc1cccnc12` [o-Phenanthroline], the “Relative Activity (%)” value on DAOC hydroxylase [1] (additive 0.05 mM) was 81%; on DAOC hydroxylase [1] (additive 0.5 mM), 0%.

In the case of `C=C1CS[C@@H]2[C@H](NC(=O)CCC[C@@H](N)C(=O)O)C(=O)N2C1C(=O)O` (stereo partly drawn) [EMCC, 7β-(D-α-aminoadipamido)-3-exomethylenecepham-4-carboxylic acid], on DAOC hydroxylase [2], the “Sp. Activity (mU/mg)” value was determined as 58.1 mU/mg; the “Relative Activity (%)” value came to 36.5%; the effectiveness as substrate result is “fairly efficient”; the “Vmax (Percent Catalytic Activities, relative Vmax)” value is on record as 37%.

With `O=S(=O)(F)Cc1ccccc1` [phenylmethylsulfonyl fluoride], the “effect on the stability of the hydroxylase” value in data set [4] (added during preparation of the extracts) is reported as “no effect”.

For the molecule `O=C(O)c1cc(SSc2ccc([N+](=O)[O-])c(C(=O)O)c2)ccc1[N+](=O)[O-]` [DTNB, 5,5'-dithiobis2-nitrobenzoic acid], the “Relative Activity (%)” value at DAOC hydroxylase [1] (additive 1 mM) is reported as 0%.

Regarding `[Cu+2]` [Cu^2+], at DAOC hydroxylase [1], the “replacement of ferrous ion” value is on record as “not replaceable”.

On to `OCCS` [β-Mercaptoethanol], for which, on DAOC hydroxylase [1], the “stimulation of catalytic activity” value is given as “little stimulating effect”.

Turning to `O=C(O)CN(CCN(CC(=O)O)CC(=O)O)CC(=O)O` [EDTA, ethylenediamine tetraacetic acid], the “Relative Activity (%)” value on DAOC hydroxylase [1] (additive 0.05 mM) is 16%; at DAOC hydroxylase [1] (additive 0.5 mM), 0%.

Take `O=C(O)CI` [Iodoacetic acid]: the “Relative Activity (%)” value at DAOC hydroxylase [1] (additive 1 mM) stood at 59%.

As for `[Fe+2]` [ferrous ion], at DAOC hydroxylase [5] (activator ferrous ion), the “Ka of the hydroxylase” value was 20 µM. Besides, on DAOC hydroxylase [1] (no external Fe2+), the “enzymatic activity without external Fe2+” value is 2 % of maximum.

With `[Ni+2]` [Ni^2+], on DAOC hydroxylase [1], the “replacement of ferrous ion” value is recorded as “not replaceable”.

Consider `Nc1ncnc2c1ncn2[C@@H]1O[C@H](COP(=O)(O)OP(=O)(O)OP(=O)(O)O)[C@@H](O)[C@H]1O` [ATP], for which, on DAOC hydroxylase [1], the “stimulation of catalytic activity” value is listed as “not”.

Consider `[Mn+2]` [Mn^2+], for which, on DAOC hydroxylase [1], the “replacement of ferrous ion” value is given as “not replaceable”.

With `[Na+]` [sodium], at DAOC hydroxylase [1], the “replacement of ferrous ion” value is “not replaceable”.

On to `CCN1C(=O)C=CC1=O` [NEM, Nethylmaleimide], for which the “Relative Activity (%)” value at DAOC hydroxylase [1] (additive 1 mM) is reported as 24%.

With `[Fe+3]` [ferric ion], on DAOC hydroxylase [1], the “replacement of ferrous ion” value was “can replace ferrous ion with retention of maximum activity”.

As to `CC1(C)S[C@@H]2[C@H](NC(=O)CCC[C@@H](N)C(=O)O)C(=O)N2[C@H]1C(=O)O` [Penicillin N, penicillin N], at DAOC hydroxylase [2], the effectiveness as substrate entry was “weak catalytic activity” and the “Vmax (Percent Catalytic Activities, relative Vmax)” value was found to be 1.4%.

`NC(CO)(CO)CO` [Tris-HCl buffer]: the “reduction in enzyme activity” value at DAOC hydroxylase [1] was determined as 27%.

On to `[Mg+2]` [Mg^2+], for which, on DAOC hydroxylase [1], the “replacement of ferrous ion” value is “not replaceable”.

As for `CC1=C(C(=O)O)N2C(=O)[C@@H](NC(=O)CCC[C@@H](N)C(=O)O)[C@H]2CC1` [Carba-DAOC, 1carba(1-dethia)deacetoxycephalosporin C], at DAOC hydroxylase [2], the “Sp. Activity (mU/mg)” value was found to be 3.0 mU/mg, the “Relative Activity (%)” value is 1.9% and the effectiveness as substrate entry is “did not serve as effective substrates”.

Turning to `O=S(=O)(O)CCN1CCN(CCO)CC1` [HEPES buffer], the “reduction in enzyme activity” value at DAOC hydroxylase [1] amounted to 7%.

B1: DAOC hydroxylase: enzyme from Streptomyces clavuligerus converting DAOC to DAC; monomeric, about 35,000 dalton (protein, UniProt P42220 2-318, looked up)
Deacetoxycephalosporin C …: ADTPVPIFNLAALREGADQEKFRECVTGMGVFYLTGYGAGDKDHRLATDTAMDFFANGTEAEKAAVTTDVPTMRRGYSALEAESTAQVTRTGSYTDYSMSFSMGISGNVFPSPEFERVWTEYFDKLYAAAQETARLVLTASGGYDAEIVGSLDELLDADPVLRLRYFPEVPEHRSAEHEPRRMAPHYDLSIITFIHQTPCANGFVSLQAEIGGELVSLPVVEDAVVVMCGAMAPLATQGALPAPRHHVRSPGAGMREGSDRTSSVFFLRPTTDFSFSVAKARSYGLAVDLDMETATFGDWIGTNYVTMHAKNEPQAG
Take B1: the “Vmax of the hydroxylase” value with DAOC hydroxylase [5] (DAOC to DAC, optimal reaction conditions) is listed as 0.45 μM of DAC formed per minute per milligram of protein. The half-life came to 72 h in data set [4] (crude extract in stabilizing buffer A (15 mM MOPS pH 7.3, 1 mM uric acid, 1 mM mannitol, 0.1M KCl)) and 12 h in data set [4] (crude extract, 4° C., 15 mM Tris-HCl buffer, pH 7.5). Further, the “improvement of half-life over Tris-HCl buffer” value in data set [4] (stabilizing buffer A) came to 6 fold.

As a reminder, the half-life is the time in which the quantity being followed falls by half. A lower half-life goes with fast loss.
